Data published in US20230029570A1, “Bacillus Strain for Applications in Agriculture, Livestock Health and Environmental Protection” (Locus IP Company, LLC, priority 2020, published 2023).

Assays:
[1] = test system: E. coli; experiment: Reduction in optical density at 600 nm of E. coli cultures treated with cleaning compositions; type: cell-based; conditions: 250 ppm
Method: The lipopeptide mixture produced by B. amy can be used in environmentally-friendly cleaning compositions and to enhance antimicrobial activity of other biosurfactants. Cleaning compositions were tested for their ability to control Gram-negative E. coli. Reduction in optical density at 600 nm (OD) was measured for cultures treated with each of the following compositions: […]

[2] = test system: Staphylococcus sp.; experiment: Reduction in optical density at 600 nm of Staphylococcus sp. cultures treated with cleaning compositions; type: cell-based
Method: Cleaning compositions according to embodiments of the subject invention were also tested for their ability to control a Gram-positive Staphylococcus sp. Reduction in optical density at 600 nm (OD) was measured for cultures treated with each of the following compositions: […]

Substance	OD600 % reduction after 2 hours [1]	OD600 % reduction after 2 hours ([2]; 50 ppm)	OD600 % reduction after 2 hours ([2]; 250 ppm)	OD600 % reduction after 2 hours ([2]; 100 ppm)
linear SLP isopropyl ester	86.4%	91.5%	–	–
linear SLP butyl ester	91.5%	–	88.1%	–
linear SLP ethyl ester	89.8%	–	–	98.3%
